In brackets after ≈: the same amount, converted by molar mass.
Columns and labels:
Assay in all cases: ≥ marks a high value that may be exact or a test limit, other limits are often not marked, values filed in µg/mL are converted to µM
[1] = test system: Bacillus subtilis ATCC 62037
[2] = test system: Candida albicans ATCC 10231
[3] = test system: Cryptococcus neoformans ATCC 34881
[4] = test system: Escherichia coli ATCC 27325
[5] = test system: Pseudomonas putida ATCC 17426
[6] = test system: Saccharomyces cerevisiae ATCC 44774
[7] = test system: Salmonella enterica subsp. enterica serovar Enteritidis ATCC 13076
[8] = test system: Staphylococcus aureus ATCC 15752
[9] = test system: Streptococcus mutans ATCC 25175
[10] = test system: Enterobacter cloacae 218R
[11] = test system: Enterococcus faecalis ATCC 29212
[12] = test system: Enterococcus faecalis W61950
[13] = test system: Enterococcus faecalis f43559
[14] = test system: Enterococcus faecium mic80
[15] = test system: Enterococcus faecium t62764
[16] = test system: Escherichia coli ESBL 63103
[17] = test system: Escherichia coli ESBL 64771
[18] = test system: Klebsiella pneumoniae ESBL 61962
[19] = test system: Klebsiella pneumoniae ESBL 63575
[20] = test system: Pseudomonas aeruginosa 198
[21] = test system: Pseudomonas aeruginosa 213
Pseudomonas aeruginosa 9 = test system: Pseudomonas aeruginosa 9
[22] = test system: Pseudomonas aeruginosa H1027
[23] = test system: Pseudomonas aeruginosa H1030
[24] = test system: Pseudomonas aeruginosa LES400
[25] = test system: Pseudomonas aeruginosa PAO1 H103
[26] = test system: Staphylococcus aureus ATCC 25923
[27] = test system: Staphylococcus aureus C623
[28] = test system: Stenotrophomonas maltophilia ATCC 13637
[29] = test system: Micrococcus luteus DSM 20030
[30] = test system: Bacillus subtilis ATCC 6633
[31] = test system: Escherichia coli ATCC 25922
[32] = test system: Klebsiella pneumoniae ATCC 10031
[33] = test system: Micrococcus luteus ATCC 10240
[34] = test system: Pseudomonas aeruginosa ATCC 27853
[35] = test system: Salmonella enterica subsp. enterica serovar Typhimurium ATCC 14028
[36] = test system: Shigella dysenteriae ATCC 9752
[37] = test system: Staphylococcus aureus ATCC 6538P
[38] = test system: Staphylococcus aureus TK784
[39] = test system: Staphylococcus epidermidis ATCC 12228

An MIC [1] of 22.7 µM (≈ 64 µg/mL), an MIC [2] of 11.4 µM (≈ 32 µg/mL) and an MIC [3] of 5.68 µM (≈ 16 µg/mL) were found for `CC[C@H](C)[C@H](NC(=O)CNC(=O)[C@H](CCCCN)NC(=O)[C@H](CCCCN)NC(=O)[C@H](CCC(N)=O)NC(=O)[C@H](CC(C)C)NC(=O)[C@H](CCSC)NC(=O)[C@@H](NC(=O)[C@H](CCC(=O)O)NC(=O)CNC(=O)[C@@H](NC(=O)[C@H](Cc1ccccc1)NC(=O)[C@H](C)NC(=O)[C@H](CCCCN)NC(=O)CNC(=O)[C@H](Cc1ccccc1)NC(=O)[C@H](CCCCN)NC(=O)[C@H](CCCCN)NC(=O)[C@H](C)NC(=O)[C@H](CO)NC(=O)[C@H](Cc1cnc[nH]1)NC(=O)[C@H](CCSC)NC(=O)[C@H](C)NC(=O)[C@H](CCCCN)NC(=O)[C@@H]1CCCN1C(=O)[C@H](C)N)C(C)C)[C@@H](C)CC)C(=O)O` [APKAMHSAKKFGKAFVGEIMLQKKGI] in this work. It also gave an MIC [4] of 22.7 µM (≈ 64 µg/mL), an MIC [5] of 22.7 µM (≈ 64 µg/mL) and an MIC [6] of 11.4 µM (≈ 32 µg/mL). For the same molecule, the MIC [7] was 11.4 µM (≈ 32 µg/mL), the MIC [8] was 22.7 µM (≈ 64 µg/mL) and the MIC [9] was at least 45.4 µM.
An MIC [10] of 11.8 µM (≈ 17 µg/mL), an MIC [11] of 11.8 µM (≈ 17 µg/mL) and an MIC [12] of at least 93.8 µM were found for `N=C(N)NCCC[C@H](NC(=O)[C@H](CCCNC(=N)N)NC(=O)[C@@H](N)Cc1ccccc1)C(=O)N[C@@H](Cc1c[nH]c2ccccc12)C(=O)N[C@@H](Cc1c[nH]c2ccccc12)C(=O)N[C@@H](CCCCN)C(=O)N[C@@H](Cc1c[nH]c2ccccc12)C(=O)N[C@@H](Cc1ccccc1)C(=O)N[C@@H](CCCCN)C(=O)O` [FRRWWKWFK] in this work. The MIC [13] was at least 46.5 µM, the MIC [14] was 2.92 µM (≈ 4.2 µg/mL) and the MIC [15] was 2.92 µM (≈ 4.2 µg/mL). The MIC [16] was 5.77 µM (≈ 8.3 µg/mL), the MIC [17] was 2.92 µM (≈ 4.2 µg/mL) and the MIC [18] was at least 46.5 µM. The MIC [19] was 11.8 µM (≈ 17 µg/mL), the MIC [20] was 1.46 µM (≈ 2.1 µg/mL) and the MIC [21] was 2.85 µM (≈ 4.1 µg/mL). It also gave an MIC (Pseudomonas aeruginosa 9) of 5.77 µM (≈ 8.3 µg/mL), an MIC [22] of 0.695 µM (≈ 1 µg/mL) and an MIC [23] of 11.8 µM (≈ 17 µg/mL). For the same molecule, the MIC [24] was 2.85 µM (≈ 4.1 µg/mL), the MIC [25] was 0.695 µM (≈ 1 µg/mL) and the MIC [26] was 0.695 µM (≈ 1 µg/mL). It also gave an MIC [27] of 1.46 µM (≈ 2.1 µg/mL) and an MIC [28] of 0.417 µM (≈ 0.6 µg/mL).
An MIC [29] of 4 µM (≈ 8.14 µg/mL) was found for `CC[C@H](C)[C@H](N)C(=O)N[C@@H](CO)C(=O)N[C@@H](CCC(N)=O)C(=O)N[C@@H](CO)C(=O)N[C@@H](CC(=O)O)C(=O)N[C@@H](C)C(=O)N[C@H](C(=O)N[C@@H](CC(C)C)C(=O)N[C@@H](CO)C(=O)N[C@@H](C)C(=O)N[C@H](C(=O)N[C@@H](Cc1c[nH]c2ccccc12)C(=O)N[C@@H](CO)C(=O)NCC(=O)N[C@H](C(=O)N[C@@H](CCCCN)C(=O)N[C@@H](CO)C(=O)N[C@@H](CC(C)C)C(=O)N[C@@H](Cc1ccccc1)C(N)=O)[C@@H](C)CC)[C@@H](C)CC)[C@@H](C)CC` [ISQSDAILSAIWSGIKSLF] in this work.
An MIC [30] of 4.47 µM (≈ 6.3 µg/mL), an MIC [31] of 8.86 µM (≈ 12.5 µg/mL) and an MIC [32] of 4.47 µM (≈ 6.3 µg/mL) were found for `CC(C)C[C@H](NC(=O)[C@H](CC(C)C)NC(=O)[C@H](CCCCN)NC(=O)[C@H](CCCCN)NC(=O)[C@H](CC(C)C)NC(=O)[C@H](Cc1c[nH]c2ccccc12)NC(=O)[C@H](CCCCN)NC(=O)[C@H](CC(C)C)NC(=O)[C@H](CC(C)C)NC(=O)[C@H](CCCCN)NC(=O)[C@@H](N)CCCCN)C(N)=O` [KKLLKWLKKLL] in this work. For the same molecule, the MIC [33] was 4.47 µM (≈ 6.3 µg/mL), the MIC [34] was 17.7 µM (≈ 25 µg/mL) and the MIC [35] was 17.7 µM (≈ 25 µg/mL). The MIC [36] was 4.47 µM (≈ 6.3 µg/mL), the MIC [37] was 4.47 µM (≈ 6.3 µg/mL) and the MIC [38] was 2.84 µM (≈ 4 µg/mL). The MIC [39] was 4.47 µM (≈ 6.3 µg/mL).

Reference: DBAASP
